Where two headings read alike, the source gives them in different places.
Experiments:
Assay in all cases: Anti-bacterial test, minimum inhibitory concentration on agar
Assay type in all cases: cell-based
[1] = test system: Acinetobacter calcoaceticus IFO 13006
Text: (§1) The compound (I) thus obtained is useful as a drug, being active against certain gram-positive and gram-negative bacteria. By way of example, the compounds are active against the following micro-organisms.
(§2) The media and compounds employed in the anti-bacterial test are as follows: • Media: • TSA = Trypticase soy agar • [Baltimore Biologicals (U.S.A.)] • B-TSA = Blood trypticase soy agar • Compounds: • Compound A = Sodium 3-[2-(2-amino-4-thiazolyl)-2-methoxyiminoacetamido]-2-oxo-azetidine-1-sulphonate • Compound B = Sodium 3-[D(-)-N-(4-ethyl-2,3-dioxo-1-piperazinocarbonyl)-phenyl-glycin- amido]-2-oxoazetidine-1-sulphonate • Compound C = Sodium 3-[D(-)-N-(4-ethyl-2,3-dioxo-1-piperazinocarbonyl)phenylglycinamido]-3-methoxy-2-oxoazetidine-1-sulphonate • Compound D = Sodium 3-[2-(4-ethyl-2,3-dioxo-1-piperazinocarboxamido)-2-(2-amino-4-thiazolyl)-acetamido]-2-oxoazetidine-1-sulphonate • Compound E = Sodium 3-[DL-2-(4-ethyl-2,3-dioxo-1-piperazinocarboxamido)-2-thienylacetamido]-2-oxoazetidine-1-sulphonate • Compound F = Sodium 3-[D-2-(4-ethyl-2,3-dioxo-1-piperazinocarboxamido)-2-thienylacetamido]-2-oxoazetidine-1-sulphonate • Compound G = Sodium 3-[D-2-(4-n-octyl-2,3-dioxo-1-piperazinocarboxamido)-2-phenylacetamido]-2-oxoazetidine-1-sulphonate • Compound H = Sodium 3-[2-(4-n-octyl-2,3-dioxo-1-piperazinocarboxamido)-2-(2-amino-4-thiazolyl)-acetamido]-2-oxoazetidine-1-sulphonate • Compound I = Sodium 3-[D-2-[(2-oxo-3-furfurylideneaminoimidazolidin-1-yl)-carboxamido]-2-phenylacetamido]-2-oxoazetidine-1-sulphonate • Compound J = Sodium 3-[2-(4-n-octyl-2,3-dioxo-1-piperazinocarboxamido)-2-thienylacetamido]-2-oxoazetidine-1-sulphonate • Compound K = Sodium 3-[D-2-[[2-oxo-3-(thiophen-2-aidoimino)-imidazolidin-1-yl]-carboxamido]-2-phenylacetamido]-2-oxoazetidine-1-sulphonate • Compound L = Sodium 3-[2-[(2-oxo-3-furfurylideneaminoimidazolidin-1-yl)-carboxamido]-2-thienylacetamido]-2-oxoazetidine-1-sulphonate

[2] = test system: Bordetella bronchiseptica Sagami; conditions: for MIC: read-out: Minimum inhibitory concentration
Text: as §1, §2

[3] = test system: Candida albicans TA; conditions: for MIC: read-out: Minimum inhibitory concentration
Text: as §1, §2

[4] = test system: Citrobacter freundii IFO 12681
Text: as §1, §2

[5] = test system: Corynebacterium diphtheriae Toronto; conditions: for MIC: read-out: Minimum inhibitory concentration
Text: as §1, §2

[6] = test system: Enterobacter cloacae IFO 12937
Text: as §1, §2

[7] = test system: Escherichia coli NIHJ JC—2; conditions: for MIC: read-out: Minimum inhibitory concentration
Text: as §1, §2

[8] = test system: Escherichia coli O—111; conditions: medium TSA
Text: as §1, §2

[9] = test system: Escherichia coli T-7; conditions: for MIC: T7, medium TSA
Text: as §1, §2

[10] = test system: Klebsiella pneumoniae DT; conditions: for MIC: read-out: Minimum inhibitory concentration
Text: as §1, §2

[11] = test system: Proteus mirabilis IFO 3849
Text: as §1, §2

[12] = test system: Proteus morganii IFO 3168; conditions: for MIC: Morganella morganii
Text: as §1, §2

[13] = test system: Proteus vulgaris IFO 3988
Text: as §1, §2

[14] = test system: Pseudomonas aeruginosa IFO 3455
Text: as §1, §2

[15] = test system: Pseudomonas aeruginosa U 31
Text: as §1, §2

[16] = test system: Serratia marcescens IFO 12648
Text: as §1, §2

[17] = test system: Staphylococcus aureus 1840
Text: as §1, §2

[18] = test system: Staphylococcus aureus 308A—1; conditions: for MIC: read-out: Minimum inhibitory concentration
Text: as §1, §2

[19] = test system: Staphylococcus aureus FDA209P; conditions: for MIC: Staphylococcus aureus, FDA209P, read-out: Minimum inhibitory concentration
Text: as §1, §2

[20] = test system: Streptococcus faecium IFO 3128; conditions: for MIC: Enterococcus faecium
Text: as §1, §2

[21] = test system: Streptococcus mitis America; conditions: for MIC: read-out: Minimum inhibitory concentration
Text: as §1, §2

[22] = test system: Streptococcus pneumoniae Type I; conditions: for MIC: read-out: Minimum inhibitory concentration
Text: as §1, §2

[23] = test system: Streptococcus pyogenes E—14; conditions: for MIC: read-out: Minimum inhibitory concentration
Text: as §1, §2

[24] = test system: Streptococcus pyogenes S—8; conditions: for MIC: read-out: Minimum inhibitory concentration
Text: as §1, §2

[25] = Bordetella bronchiseptica Sagami, medium B—TSA
[26] = Candida albicans TA, medium TSA
[27] = Corynebacterium diphtheriae Toronto, medium B—TSA
[28] = Escherichia coli NIHJ JC—2, medium TSA
[29] = Klebsiella pneumoniae DT, medium TSA
[30] = Staphylococcus aureus 308A—1, medium TSA
[31] = Staphylococcus aureus FDA209P, medium B—TSA
[32] = Staphylococcus aureus FDA209P, medium TSA
[33] = Streptococcus mitis America, medium B—TSA
[34] = Streptococcus pneumoniae Type I, medium B—TSA
[35] = Streptococcus pyogenes E—14, medium B—TSA
[36] = Streptococcus pyogenes S—8, medium B—TSA
[37] = IFO13006, Acinetobacter calcoaceticus IFO 13006, medium TSA, read-out: Minimum inhibitory concentration
[38] = IFO12681, Citrobacter freundii IFO 12681, medium TSA, read-out: Minimum inhibitory concentration
[39] = IFO12937, Enterobacter cloacae IFO 12937, medium TSA, read-out: Minimum inhibitory concentration
[40] = IFO3849, Proteus mirabilis IFO 3849, medium TSA, read-out: Minimum inhibitory concentration
[41] = IFO3168, Proteus morganii IFO 3168, medium TSA, read-out: Minimum inhibitory concentration
[42] = IFO3988, Proteus vulgaris IFO 3988, medium TSA, read-out: Minimum inhibitory concentration
[43] = U31, Pseudomonas aeruginosa U 31, medium TSA, read-out: Minimum inhibitory concentration
[44] = IFO12648, Serratia marcescens IFO 12648, medium TSA, read-out: Minimum inhibitory concentration
[45] = Staphylococcus aureus 1840, medium TSA, read-out: Minimum inhibitory concentration
[46] = IFO3128, Streptococcus faecium IFO 3128, medium B—TSA, read-out: Minimum inhibitory concentration
[47] = Pseudomonas aeruginosa, IFO3455, read-out: Minimum inhibitory concentration

Structure (SMILES): CCN1CCN(C(=O)NC(C(=O)NC2CN(S(=O)(=O)[O-])C2=O)c2cccs2)C(=O)C1=O.[Na+] (racemic) [Compound E, Sodium 3-[DL-2-(4-ethyl-2,3-dioxo-1-piperazinocarboxamido)-2-thienylacetamido]-2-oxoazetidine-1-sulphonate]
- Minimum inhibitory concentration ([1]; Acinetobacter calcoaceticus IFO 13006, medium TSA): 50 µg/mL
- Minimum inhibitory concentration [2, 25]: >100 µg/mL
- Minimum inhibitory concentration [3, 26]: >100 µg/mL
- Minimum inhibitory concentration ([4]; Citrobacter freundii IFO 12681, medium TSA): 3.13 µg/mL
- Minimum inhibitory concentration [5, 27]: 0.39 µg/mL
- Minimum inhibitory concentration ([6]; Enterobacter cloacae IFO 12937, medium TSA): 3.13 µg/mL
- Minimum inhibitory concentration [7, 28]: 1.56 µg/mL
- Minimum inhibitory concentration [8]: 0.2 µg/mL
- Minimum inhibitory concentration ([9]; medium TSA): >100 µg/mL
- Minimum inhibitory concentration [10, 29]: 0.78 µg/mL
- Minimum inhibitory concentration ([11]; Proteus mirabilis IFO 3849, medium TSA): 0.78 µg/mL
- Minimum inhibitory concentration ([12]; Proteus morganii IFO 3168, medium TSA): 12.5 µg/mL
- Minimum inhibitory concentration ([13]; Proteus vulgaris IFO 3988, medium TSA): <0.1 µg/mL
- Minimum inhibitory concentration ([14]; Pseudomonas aeruginosa IFO 3455, medium TSA): 3.13 µg/mL
- Minimum inhibitory concentration ([15]; Pseudomonas aeruginosa U 31, medium TSA): >100 µg/mL
- Minimum inhibitory concentration ([16]; Serratia marcescens IFO 12648, medium TSA): 3.13 µg/mL
- Minimum inhibitory concentration ([17]; Staphylococcus aureus 1840, medium TSA): 25 µg/mL
- Minimum inhibitory concentration [18, 30]: 6.25 µg/mL
- Minimum inhibitory concentration [19, 31]: 6.25 µg/mL
- Minimum inhibitory concentration [19, 32]: 6.25 µg/mL
- Minimum inhibitory concentration ([20]; Streptococcus faecium IFO 3128, medium B—TSA): >100 µg/mL
- Minimum inhibitory concentration [21, 33]: 25 µg/mL
- Minimum inhibitory concentration [22, 34]: 3.13 µg/mL
- Minimum inhibitory concentration [23, 35]: 1.56 µg/mL
- Minimum inhibitory concentration [24, 36]: 3.13 µg/mL

Structure (SMILES): O=C(NC1CN(S(=O)(=O)O)C1=O)[C@H](NC(=O)N1CCN(N=Cc2cccs2)C1=O)c1ccccc1 (stereo partly drawn) [Compound K, Sodium 3-[D-2-[[2-oxo-3-(thiophen-2-aidoimino)-imidazolidin-1-yl]-carboxamido]-2-phenylacetamido]-2-oxoazetidine-1-sulphonate]
- MIC [1, 37]: 50 µg/mL
- MIC [2, 25]: > 100 µg/mL
- MIC [3, 26]: > 100 µg/mL
- MIC [4, 38]: 1.56 µg/mL
- MIC [5, 27]: 3.13 µg/mL
- MIC [6, 39]: 12.5 µg/mL
- MIC [7, 28]: 1.56 µg/mL
- MIC [8]: 0.39 µg/mL
- MIC [9]: > 100 µg/mL
- MIC [10, 29]: 0.39 µg/mL
- MIC [11, 40]: 1.56 µg/mL
- MIC [12, 41]: 12.5 µg/mL
- MIC [13, 42]: 0.39 µg/mL
- MIC ([14]; IFO3455, Pseudomonas aeruginosa IFO 3455, medium TSA, read-out: Minimum inhibitory concentration): 3.13 µg/mL
- MIC [15, 43]: > 100 µg/mL
- MIC [16, 44]: 1.56 µg/mL
- MIC [17, 45]: 50 µg/mL
- MIC [18, 30]: 3.13 µg/mL
- MIC [19, 31]: 6.25 µg/mL
- MIC [19, 32]: 6.25 µg/mL
- MIC [20, 46]: > 100 µg/mL
- MIC [21, 33]: 1.56 µg/mL
- MIC [22, 34]: 1.56 µg/mL
- MIC [23, 35]: 0.78 µg/mL
- MIC [24, 36]: 1.56 µg/mL

Structure (SMILES): CON=C(C(=O)NC1CN(S(=O)(=O)[O-])C1=O)c1csc(N)n1.[Na+] (stereo not shown) [Compound A, Sodium 3-[2-(2-amino-4-thiazolyl)-2-methoxyiminoacetamido]-2-oxo-azetidine-1-sulphonate]
- MIC ([1]; Acinetobacter calcoaceticus, IFO13006, read-out: Minimum inhibitory concentration): 6.25 µg/mL
- MIC ([2]; Bordetella bronchiseptica): 100 µg/mL
- MIC ([3]; Candida albicans): > 100 µg/mL
- MIC ([4]; Citrobacter freundii, IFO12681, read-out: Minimum inhibitory concentration): 1.56 µg/mL
- MIC ([5]; Corynebacterium diphtheriae): 1.56 µg/mL
- MIC ([6]; Enterobacter cloacae, IFO12937, read-out: Minimum inhibitory concentration): > 100 µg/mL
- MIC ([7]; Escherichia coli): 0.78 µg/mL
- MIC [8]: 0.39 µg/mL
- MIC [9]: > 100 µg/mL
- MIC ([10]; Klebsiella pneumoniae): 0.78 µg/mL
- MIC ([11]; Proteus mirabilis, IFO3849, read-out: Minimum inhibitory concentration): 6.25 µg/mL
- MIC ([12]; IFO3168, read-out: Minimum inhibitory concentration): 25 µg/mL
- MIC ([13]; Proteus vulgaris, IFO3988, read-out: Minimum inhibitory concentration): 1.56 µg/mL
- MIC [14, 47]: 6.25 µg/mL
- MIC ([15]; Pseudomonas aeruginosa, U31, read-out: Minimum inhibitory concentration): > 100 µg/mL
- MIC ([16]; Serratia marcescens, IFO12648, read-out: Minimum inhibitory concentration): 12.5 µg/mL
- MIC ([17]; Staphylococcus aureus, 1840, read-out: Minimum inhibitory concentration): 100 µg/mL
- MIC ([18]; Staphylococcus aureus): 25 µg/mL
- Minimum inhibitory concentration [19, 31]: 50 µg/mL
- MIC [19]: 50 µg/mL
- MIC ([20]; IFO3128, read-out: Minimum inhibitory concentration): > 100 µg/mL
- MIC ([21]; Streptococcus mitis): 25 µg/mL
- MIC ([22]; Streptococcus pneumoniae): 12.5 µg/mL
- MIC ([23]; Streptococcus pyogenes): 3.13 µg/mL
- MIC ([24]; Streptococcus pyogenes): 3.13 µg/mL

Structure (SMILES): O=C(NC1CN(S(=O)(=O)O)C1=O)[C@H](NC(=O)N1CCN(N=Cc2ccco2)C1=O)c1ccccc1 (stereo partly drawn) [Compound I, Sodium 3-[D-2-[(2-oxo-3-furfurylideneaminoimidazolidin-1-yl)-carboxamido]-2-phenylacetamido]-2-oxoazetidine-1-sulphonate]
- MIC [1, 37]: 25 µg/mL
- MIC [2, 25]: > 100 µg/mL
- MIC [3, 26]: > 100 µg/mL
- MIC [4, 38]: 6.25 µg/mL
- MIC [5, 27]: 0.78 µg/mL
- MIC [6, 39]: 25 µg/mL
- MIC [7, 28]: 1.56 µg/mL
- MIC [8]: 3.13 µg/mL
- MIC [9]: > 100 µg/mL
- MIC [10, 29]: 0.2 µg/mL
- MIC [11, 40]: 1.56 µg/mL
- MIC [12, 41]: 12.5 µg/mL
- MIC [13, 42]: 0.2 µg/mL
- MIC [14, 47]: 3.13 µg/mL
- MIC [15, 43]: > 100 µg/mL
- MIC [16, 44]: 1.56 µg/mL
- MIC [17, 45]: 50 µg/mL
- MIC ([18]; Staphylococcus aureus): 3.13 µg/mL
- MIC [19, 31]: 6.25 µg/mL
- MIC [19, 32]: 6.25 µg/mL
- MIC [20, 46]: > 100 µg/mL
- MIC ([21]; Streptococcus mitis): 3.13 µg/mL
- MIC [22, 34]: 1.56 µg/mL
- MIC [23, 35]: 0.39 µg/mL
- MIC [24, 36]: 0.78 µg/mL

— patent publication EP0021678B1, “1-Sulpho-2-oxoazetidine derivatives, their production and pharmaceutical compositions thereof” (Takeda Chemical Industries, Ltd., priority 1979, dated 1981)
